Results published in PubChem BioAssay (NCI).
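Each compound was tested at five concentrations against cells in 96-well plates for 48 hours. GI50 is the concentration that inhibits growth by half. TGI marks complete inhibition of growth.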

Experiments:
Test in all cases: growth of human tumour cells (NCI), 48 h
UO-31 renal = system: UO-31 renal
T-47D breast = system: T-47D breast
SR leukemia = system: SR leukemia
SF-539 CNS = system: SF-539 CNS
EKVX NSCLC = system: EKVX NSCLC
BT-549 breast = system: BT-549 breast
NCI-H226 lung = system: NCI-H226 lung
CCRF-CEM leukemia = system: CCRF-CEM leukemia
M14 melanoma = system: M14 melanoma
SNB-75 CNS = system: SNB-75 CNS

| SMILES | TGI (UO-31 renal) [µM] | TGI (T-47D breast) [µM] | TGI (SR leukemia) [µM] | TGI (SF-539 CNS) [µM] | TGI (EKVX NSCLC) [µM] | TGI (BT-549 breast) [µM] | TGI (NCI-H226 lung) [µM] | TGI (CCRF-CEM leukemia) [µM] | TGI (M14 melanoma) [µM] | GI50 (UO-31 renal) [µM] | GI50 (T-47D breast) [µM] | GI50 (SR leukemia) [µM] | GI50 (SF-539 CNS) [µM] | GI50 (BT-549 breast) [µM] | GI50 (NCI-H226 lung) [µM] | GI50 (SNB-75 CNS) [µM] | TGI (SNB-75 CNS) [µM] | GI50 (CCRF-CEM leukemia) [µM] | GI50 (M14 melanoma) [µM] | GI50 (EKVX NSCLC) [µM] |
| --- | --- | --- | --- | --- | --- | --- | --- | --- | --- | --- | --- | --- | --- | --- | --- | --- | --- | --- | --- | --- |
| CC1(C)CCC[C@]2(C)[C@@H](C=O)C(C=O)=CC[C@@H]12 | 29.9 | 60.3 | 44.5 | 53.3 | > 100 | 74.2 | 56.1 | 80.1 | 33.7 | – | – | – | – | – | – | – | – | – | – | – |
| CC1(C)N=C(N)N=C(N)N1c1ccc(CCCCc2ccc(S(=O)(=O)F)cc2)c(Cl)c1 | > 100 | 15.2 | 23.2 | 13.9 | – | 22.5 | 25.9 | 17.4 | 17.9 | 9.59 | 2.05 | 0.051 | 0.391 | 9.61 | 0.626 | 0.514 | 18.9 | 0.107 | 0.334 | – |
| CN1CCC(n2cnc(-c3ccc(F)cc3)c2-c2ccnc(N)n2)CC1 | 16.1 | > 25 | > 25 | > 25 | > 25 | > 25 | > 25 | > 25 | > 25 | 2.55 | 16 | 10.4 | 14.2 | 15.3 | 10.9 | 10 | > 23.9 | 14.4 | 11.7 | 10.3 |
| CC(=O)Oc1ccccc1C(=O)/C=C/c1cccc([N+](=O)[O-])c1 | 2.96 | 44 | 7.7 | 4.93 | 26.6 | 5.41 | 30.6 | > 100 | 14 | 1.52 | 10.8 | 2.25 | 2.08 | 2.28 | 10.9 | 2.94 | 14.4 | 3.06 | 3.93 | 11.3 |
| CCN1C(=O)N(CC)C2C1NN=c1s/c(=C\c3ccccc3Br)c(=O)n12 (stereo not drawn) | 34.4 | 57.9 | > 100 | 0.382 | > 70.7 | 17.1 | 4.98 | > 100 | 13.8 | 0.205 | 13.5 | 0.023 | 0.0242 | 0.0327 | 0.132 | 0.0262 | 2.22 | 0.0354 | 0.0318 | 0.317 |
| COC(=O)c1nc(-c2ccccc2)oc1S(=O)(=O)n1nc(C)cc1N | 21.1 | 18.3 | 3.94 | 27.7 | 43.9 | 23.2 | 41.1 | 10.5 | 20 | 8.59 | 3.84 | 0.933 | 14.4 | 10.8 | 16.5 | 13.2 | 26.6 | 2.11 | 5.66 | 16.7 |
| O=C(Oc1cccnc1)c1ccsc1Nc1ccnc(C(F)(F)F)c1 | > 100 | 68 | 47.1 | – | > 100 | > 100 | > 100 | > 100 | > 100 | 20.8 | 13.8 | 3.74 | – | 5.36 | 22.3 | 25.2 | > 100 | 4.19 | 9.39 | 34.2 |
| CN(C)CC1CCCC1=O (stereo not drawn) | 22.9 | 15.2 | 0.289 | 14.8 | 3.59 | 13.8 | 30.5 | 0.533 | 3.46 | – | – | – | – | – | – | – | 9.6 | – | – | – |
| Cc1nc2ccccc2c(/C=C/c2ccc(Br)cc2)c1C(=O)/C=C/c1ccccc1 | 2.44 | 3.63 | 6.6 | 3.2 | 3.32 | 4.49 | 3.35 | > 100 | 4.48 | 1.21 | 1.46 | 1.24 | 1.76 | 1.86 | 1.67 | 1.73 | 5.44 | 1.48 | 1.85 | 1.75 |
| CCN1C(=O)N(CC)C2C1NN=c1s/c(=C3\C(=O)N(CCc4ccccc4)c4ccccc43)c(=O)n12 (stereo not drawn) | > 35.2 | > 23.9 | > 36.2 | 0.643 | > 100 | 4.97 | 3.78 | > 100 | 12.5 | 1.03 | 1.19 | 0.461 | 0.228 | 1.49 | 0.811 | 0.289 | 2.09 | 2.58 | 0.478 | 0.641 |
| Cn1cc(-c2nonc2-c2cn(C)c3ccccc23)c2ccccc21 | > 100 | > 100 | > 100 | 2.19 | > 100 | > 100 | > 100 | > 100 | > 100 | 0.972 | 4.77 | 0.406 | 0.559 | 1.37 | 3.25 | 0.176 | 0.842 | 0.703 | 0.469 | 1.7 |
| CN1CCN(CC(O)COc2c(Br)c(Br)c(Br)c3c2OC(C)(C)C3)CC1 (stereo not drawn) | 31 | 38.5 | 4.75 | 13.5 | 19.7 | 26.4 | 61.4 | 16.2 | – | 9.24 | 12.6 | 1.95 | 3.21 | 10.6 | 24.2 | 7.79 | 27 | 3.11 | – | 5.21 |
| COc1cc(/C=C/[N+](=O)[O-])cc(Br)c1OC | 3.49 | 8.48 | > 100 | 6.62 | 14.6 | 6.62 | 52.8 | 44.5 | 3.74 | 1.86 | 2.57 | 2.02 | 2.49 | 2.77 | 16.7 | 1.85 | 5 | 6.65 | 1.78 | 3.32 |
| Cn1cncc1CC1COC(=O)C1C(O)c1ccccc1 (stereo not drawn) | – | > 100 | > 100 | > 100 | > 100 | > 100 | > 100 | > 100 | > 100 | – | – | – | – | – | – | – | > 100 | – | – | – |
| C[CH2][Pb]([CH2]C)([CH2]C)[O]C(=O)c1ccc2ccccc2n1 | > 10 | > 10 | > 10 | > 10 | > 10 | > 10 | > 10 | > 10 | > 10 | > 10 | > 10 | > 10 | > 10 | > 10 | > 10 | – | – | > 10 | > 10 | > 10 |
| CCC1(O)C(=O)OCc2c1cc1n(c2=O)Cc2cc3cc(N)ccc3nc2-1 (stereo not drawn) | 0.0864 | > 100 | 0.0122 | < 0.01 | > 28.9 | 0.0931 | – | < 0.01 | 0.153 | – | – | – | – | – | – | – | 0.0375 | – | – | – |
| Cc1c(C2=C(c3cn(C)c4ccccc34)C(=O)NC2=O)c2ccccc2n1C | > 25 | > 25 | > 25 | > 6.77 | – | > 25 | > 25 | > 25 | > 25 | 1.74 | 4.07 | 1.18 | 0.921 | 2.09 | 4.33 | 0.732 | 7.38 | 1.47 | 1.5 | – |
| CN1CCN(Cc2ccc(NC(=O)c3[nH]ncc3Nc3ncnc4sc5c(c34)CCCC5)cc2)CC1 | 1.75 | 13.5 | 0.527 | 1.71 | – | 2.65 | – | 0.823 | 1.64 | 0.356 | 0.457 | 0.173 | 0.457 | 1.23 | – | 0.104 | 1.44 | 0.179 | 0.324 | – |
| CCN(Cc1ccc(Cl)s1)c1ccc(CO)c(Cl)c1 | 20 | 0.582 | 57.1 | 28.5 | – | 24.8 | 0.232 | > 81.1 | 34.3 | 1.12 | 0.121 | 17.6 | 13 | 8.19 | 0.0915 | 2.18 | 21.6 | 13.1 | 10.3 | – |
| N/N=C1\CC(=O)NC(=O)N1 | > 100 | > 100 | > 100 | – | > 100 | > 100 | > 100 | > 100 | > 100 | – | – | – | – | – | – | – | > 100 | – | – | – |
| C#CCOc1cccc(Nc2ncnc3c(NC(=O)CCl)cccc23)c1 | 39.2 | 39.3 | 31.7 | 31.3 | 54.1 | 62.5 | > 100 | 35.9 | 54.5 | 15.5 | 15.7 | 6.06 | 16.6 | 19.3 | 33.4 | – | – | 10.7 | 18.2 | 20 |
